Laboratory results reported in patent publication US20090163521A1, “Novel Pyrazolopyrimidinone Derivatives” (ORCHID RESEARCH LABORATORIES LIMITED, priority 2005, published 2009).

Assays:
TNF-α [1] = experiment: In vitro measurement of TNF-α in LPS-stimulated human PBMC; type: cell-based; settings: LPS 1 μg/ml, 18 h
Procedure: This assay determines the effect of test compounds on the production of TNF α in human Peripheral Blood Mononuclear Cells (PBMC). Compounds were tested for their ability to inhibit the activity of TNF α in human PBMC. PBMC were isolated from blood (from healthy volunteers) using BD Vacutainer CPT™ (Cell preparation tube, BD Bio Science) and suspended in RPMI medium (Physiol. Res. 52: 593-598, 2003). The test compounds were pre-incubated with PBMC (0.5 million/incubation well) for 15 minutes at 37° C. and then stimulated with Lipopolysaccharide (Escherichia coli: B4; 1 μg/ml) for 18 h at 37° C. in 5% CO2. The levels of TNFα in cell culture medium were estimated using enzyme linked Immunosorbent assay performed in a 96 well format as per the procedure of the manufacturer (Cayman Chemical, Ann Arbor, USA).

COX-2 = molecular target: T1, COX-2 (Homo sapiens, UniProt P35354); experiment: Human whole blood assay (LPS-induced PGE2, COX-2 inhibition); type: cell-based; settings: LPS stimulated
T1 construct: Fresh blood was collected in tubes containing sodium heparin by vein puncture from healthy male volunteers; endogenous in cells; host or cells: human whole blood from healthy male volunteers, aspirin-pretreated and LPS-stimulated
T1 sequence (P35354 18-604): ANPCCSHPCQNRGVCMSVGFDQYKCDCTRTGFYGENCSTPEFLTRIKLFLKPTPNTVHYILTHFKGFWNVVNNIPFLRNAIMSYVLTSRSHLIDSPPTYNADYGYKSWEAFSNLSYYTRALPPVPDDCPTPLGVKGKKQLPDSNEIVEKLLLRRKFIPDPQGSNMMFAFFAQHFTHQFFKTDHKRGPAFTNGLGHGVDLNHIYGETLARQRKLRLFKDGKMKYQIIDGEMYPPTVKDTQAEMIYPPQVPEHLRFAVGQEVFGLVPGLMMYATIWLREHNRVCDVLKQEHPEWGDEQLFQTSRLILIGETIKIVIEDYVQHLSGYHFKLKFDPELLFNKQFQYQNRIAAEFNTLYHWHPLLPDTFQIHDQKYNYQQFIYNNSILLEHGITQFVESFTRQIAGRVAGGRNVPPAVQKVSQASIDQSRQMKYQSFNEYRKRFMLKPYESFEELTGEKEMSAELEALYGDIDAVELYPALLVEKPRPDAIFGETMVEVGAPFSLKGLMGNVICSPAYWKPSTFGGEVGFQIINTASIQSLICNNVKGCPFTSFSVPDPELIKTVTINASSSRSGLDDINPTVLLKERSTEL
Procedure: Human whole blood provides a protein and cell rich milieu appropriate for the study of biochemical efficacy of anti-inflammatory compounds such as selective COX-2 inhibitors. […] This is correlating with the observation that COX-2 inhibitors have no effect on prostaglandin E2 (PGE2) production in normal blood. These inhibitors were active only after incubation of human blood with lipopolysaccharide (LPS), which induces COX-2 production in the blood.
Fresh blood was collected in tubes containing sodium heparin by vein puncture from healthy male volunteers. The subjects should have no apparent inflammatory conditions and not taken NSAIDs for at least 7 days prior to blood collection. Blood was preincubated with aspirin in vitro (12 μg/ml, at time zero) to inactivate COX-1 for 6 hours. Then test compounds (at various concentrations) or vehicle were added to blood. After that blood was stimulated with LPS B:4 (10 μg/ml) and incubated for another 18 h at 37° C. water bath. After which the blood was centrifuged, plasma was separated and stored at −80° C. (J. Pharmacol. Exp. Ther, 271, 1705, 1994; Proc. Natl. Acad. Sci. USA, 96, 7563, 1999). The plasma was assayed for PGE2 using Cayman ELISA kit as per the procedure outlined by the manufacturer (Cayman Chemicals, Ann Arbor, USA).

SF-268 = experiment: DTP human tumor cell line screen, SF-268; type: cell-based; settings: 100 μM; 48 hours; percent growth of control
Procedure: (§1) The current assay utilizes a 384 well plate format and fluorescent staining technologies resulting in greater screening capacity for testing of synthetic samples.
(§2) The cell lines of the cancer-screening panel are grown in RPMI 1640 medium containing 5% fetal bovine serum and 2 mM L-glutamine. For a typical screening experiment, cells are inoculated into 96 well microtiter plates in 100 μL. After cell inoculation, the micro-titer plates are incubated at 37° C., 5% CO2, 95% air and 100% relative humidity for 24 h prior to addition of experimental drugs. The cells are plated a densities of 5000 cells/well (MCF7), 1000 cells/well (NCI-H460), and 7500 cells/well (SF-268) to allow for varying doubling time of the cell lines. Each plate contains all three-cell lines, a series of dilutions of standard agents, total kill wells and appropriate controls. Plates are incubated under standard conditions for 24 hours prior to addition of experimental compounds or extracts.
(§3) Experimental compounds are solubilized in dimethyl sulfoxide (DMSO) at 400-times the desired maximum test concentration (maximum final DMSO concentration of 0.25%) and stored frozen. Compounds are then diluted with complete media with 0.1% gentamicin sulfate (5 μl of test sample in 100% DMSO is added to 565 μl of complete medium). 20 μl of this solution is then dispensed into test wells containing 50 μl of cell suspension to yield a test concentration of 1.00E-04M.
(§4) After compound addition, plates are incubated at standard conditions for 48 hours, 10 μl/well Alamar Blue is added and the plates are incubated for an additional 4 hours. Fluorescence is measured using an excitation wavelength of 530 nm and an emission wavelength of 590 nm.
(§5) Percent growth is calculated on a plate-by-plate basis for test wells relative to control wells. Percent Growth is expressed as the ratio of fluorescence of the test well to the average fluorescence of the control wells ×100.

NCI-H460 = experiment: DTP human tumor cell line screen, NCI-H460; type: cell-based; settings: 100 μM; 48 hours; percent growth of control
Procedure: as §1, §2, §3, §4, §5

MCF-7 = experiment: DTP human tumor cell line screen, MCF-7; type: cell-based; settings: 100 μM; 48 hours; percent growth of control
Procedure: as §1, §2, §3, §4, §5

TNF-α [2] = experiment: LPS induced sepsis for measurement of TNF-α inhibition in mice; type: in vivo; settings: at 50 mg/kg, oral, serum 90 min after LPS
Procedure: The LPS induced sepsis model in mice was performed as described by Les sekut et al (J Lab Clin Med 1994; 124:813-20). Female Swiss albino mice were selected and the body weights were equivalent within each group. The mice were fasted for 20 hours with free access to water. The mice were dosed orally with the test compound suspended in vehicle containing 0.5% Tween 80 in 0.25% Carboxy-methylcellulose sodium salt. The control mice were administered the vehicle alone. After 30 min of oral dosing, mice were injected with 500 μg of Lipopolysaccharide (Escherichia coli, LPS: B4 from Sigma) in phosphate buffer saline solution into the intraperitoneal cavity of the mice. After 90 min of LPS administration mice were bled via retro-orbital sinus puncture. Blood samples were stored overnight at 4° C. Serum samples were collected by centrifuging the samples at 400 rpm for 15 min at 4° C. Immediately the serum samples were analysed for TNFα levels using commercially available mouse TNF-α ELISA kit (Amersham Biosciences) and assay was performed by the manufacturer instruction.

With `CSc1ccc(-c2nc3c(c(N)nn3C(C)=O)c(=O)n2-c2ccc(C)c(C)c2)cc1` [Example 37, 1-Acetyl-3-amino-5-(3,4-dimethylphenyl)-6-[(4-methylthio)phenyl]-1,5-dihydro-4H-pyrazolo[3,4-d]pyrimidin-4-one] the inhibition at 10 µM (TNF-α [1]) was 29.9%.

Work on `Cc1ccc(-n2c(-c3ccccc3)nc3[nH]nc(N)c3c2=O)cc1` [Example 16, 3-Amino-5-(4-methylphenyl)-6-phenyl-1,5-dihydro-4H-pyrazolo[3,4-d]pyrimidin-4-one] yielded an inhibition at 0.25 µM (COX-2) of 31.4%.

In the case of `CCOc1ccc(-n2c(-c3ccc(SC)cc3)nc3[nH]nc(N)c3c2=O)cc1` [Example 15, 3-Amino-5-(4-ethoxyphenyl)-6-[(4-methylthio)phenyl]-1,5-dihydro-4H-pyrazolo[3,4-d]pyrimidin-4-one], the inhibition at 0.25 µM (COX-2) is reported as 20.2%.

`CSc1ccc(-n2c(-c3ccccc3)nc3[nH]nc(N)c3c2=O)cc1` [Example 11, 3-Amino-5-[(4-methylthio)phenyl]-6-phenyl-1,5-dihydro-4H-pyrazolo[3,4-d]pyrimidin-4-one] showed an inhibition at 10 µM (COX-2) of 29.2%.

`Cc1ccc(-n2c(-c3ccc(S(C)(=O)=O)cc3)nc3[nH]nc(N)c3c2=O)cc1` [Example 14, 3-Amino-5-(4-methylphenyl)-6-[(4-methylsulfonyl)phenyl]-1,5-dihydro-4H-pyrazolo[3,4-d]pyrimidin-4-one] was tested, and the inhibition at 0.25 µM (COX-2) was 19.3% and the inhibition at 10 µM (COX-2) was 23%.

`CSc1ccc(-n2c(-c3ccc(F)cc3)nc3[nH]nc(N)c3c2=O)cc1` [Example 5, 3-Amino-5-[(4-methylthio)phenyl]-6-(4-fluorophenyl)-1,5-dihydro-4H-pyrazolo[3,4-d]pyrimidin-4-one] showed an inhibition at 10 µM (COX-2) of 31.8%.

For `Nc1n[nH]c2nc(-c3ccccc3)n(-c3ccc(F)cc3)c(=O)c12` [Example 12, 3-Amino-5-(4-fluorophenyl)-6-phenyl-1,5-dihydro-4H-pyrazolo[3,4-d]pyrimidin-4-one], the inhibition at 0.25 µM (COX-2) was 26.2%.

With `COc1ccc(-n2c(-c3ccc(N(C)C)cc3)nc3c(c(N)nn3C)c2=O)cc1` [Example 31, 3-Amino-6-[4-(dimethylamino)phenyl]-5-(4-methoxyphenyl)-1-methyl-1,5-dihydro-4H-pyrazolo[3,4-d]pyrimidin-4-one] the inhibition at 10 µM (TNF-α [1]) was 87.9%.

In the case of `CSc1ccc(-c2nc3[nH]nc(N)c3c(=O)n2-c2ccc(C(C)(C)C)cc2)cc1` [Example 6, 3-Amino-5-(4-tert-butylphenyl)-6-[4-(methylthio)phenyl]-1,5-dihydro-4H-pyrazolo[3,4-d]pyrimidin-4-one], the “% T/C CNS (SF-268)” value (SF-268) is reported as 1%, the “% T/C Lung (NCI-H460)” value (NCI-H460) is reported as 0% and the “% T/C Breast (MCF-7)” value (MCF-7) is reported as 0%. It also gave an inhibition at 0.25 µM (COX-2) of 18.6% and an inhibition at 10 µM (COX-2) of 37.7%.

`CSc1ccc(-n2c(-c3ccc(C(F)(F)F)cc3)nc3[nH]nc(N)c3c2=O)cc1` [Example 17, 3-Amino-5-[(4-methylthio)phenyl]-6-(4-trifluoromethylphenyl)-1,5-dihydro-4H-pyrazolo[3,4-d]pyrimidin-4-one] was tested, and the “% T/C CNS (SF-268)” value (SF-268) was 0%, the “% T/C Lung (NCI-H460)” value (NCI-H460) was 25% and the “% T/C Breast (MCF-7)” value (MCF-7) was 0%. It also gave an inhibition at 0.25 µM (COX-2) of 19.4% and an inhibition at 10 µM (COX-2) of 36.5%.

`CSc1ccc(-c2nc3c(c(N)nn3C)c(=O)n2-c2ccc(Cl)cc2)cc1` [Example 24, 3-Amino-5-(4-chlorophenyl)-1-methyl-6-[4-(methylthio)phenyl]-1,5-dihydro-4H-pyrazolo[3,4-d]pyrimidin-4-one] was tested, and the inhibition at 10 µM (TNF-α [1]) was 87.9% and the “TNF-α Inhibition (%)” value (TNF-α [2]) was 91.99 (at 50 mg/kg) %.

In the case of `CSc1ccc(-n2c(-c3ccc(Cl)cc3)nc3[nH]nc(N)c3c2=O)cc1` [Example 8, 3-Amino-5-[(4-methylthio)phenyl]-6-(4-chlorophenyl)-1,5-dihydro-4H-pyrazolo[3,4-d]pyrimidin-4-one], the “% T/C CNS (SF-268)” value (SF-268) is reported as 36%, the “% T/C Lung (NCI-H460)” value (NCI-H460) is reported as 2% and the “% T/C Breast (MCF-7)” value (MCF-7) is reported as 26%. It also gave an inhibition at 0.25 µM (COX-2) of 28.3%.

With `CSc1ccc(-c2nc3c(c(N)nn3C)c(=O)n2-c2ccc(F)cc2)cc1` [Example 25, 3-Amino-5-(4-fluorophenyl)-1-methyl-6-[4-(methylthio)phenyl]-1,5-dihydro-4H-pyrazolo[3,4-d]pyrimidin-4-one] the inhibition at 10 µM (TNF-α [1]) was 52.9%.

Work on `CSc1ccc(-n2c(-c3ccc(C)cc3)nc3[nH]nc(N)c3c2=O)cc1` [Example 13, 3-Amino-5-[(4-methylthio)phenyl]-6-(4-methylphenyl)-1,5-dihydro-4H-pyrazolo[3,4-d]pyrimidin-4-one] yielded an inhibition at 0.25 µM (COX-2) of 26.8%.

`CSc1ccc(-c2nc3c(c(N)nn3C)c(=O)n2-c2ccc(Br)cc2)cc1` [Example 30, 3-Amino-5-(4-bromophenyl)-1-methyl-6-[4-(methylthio)phenyl]-1,5-dihydro-4H-pyrazolo[3,4-d]pyrimidin-4-one] was tested, and the inhibition at 10 µM (TNF-α [1]) was 86.6%.

In the case of `CSc1ccc(-c2nc3[nH]nc(N)c3c(=O)n2-c2ccc(Cl)cc2)cc1` [Example 9, 3-Amino-5-(4-chlorophenyl)-6-[(4-methylthio)phenyl]-1,5-dihydro-4H-pyrazolo[3,4-d]pyrimidin-4-one], the “% T/C CNS (SF-268)” value (SF-268) is reported as 31%, the “% T/C Lung (NCI-H460)” value (NCI-H460) is reported as 4% and the “% T/C Breast (MCF-7)” value (MCF-7) is reported as 9%. The inhibition at 10 µM (COX-2) was 27.1%.

For `CCc1ccc(-n2c(-c3ccc(SC)cc3)nc3[nH]nc(N)c3c2=O)cc1` [Example 10, 3-Amino-5-(4-ethylphenyl)-6-[(4-methylthio)phenyl]-1,5-dihydro-4H-pyrazolo[3,4-d]pyrimidin-4-one], the “% T/C CNS (SF-268)” value (SF-268) was 10%, the “% T/C Lung (NCI-H460)” value (NCI-H460) was 4% and the “% T/C Breast (MCF-7)” value (MCF-7) was 22%.
